Measured values from publication PMC9218960 (ACS infectious diseases, 2020).
Residue numbers refer to the chain shown, from its start.

What was measured:
Experiment in all cases: [3H]uridine uptake inhibition by purines in PfENT1-SNP-expressing yeast
Format in all cases: cell-based
PfENT1 V129I/L133F = target: T1, PfENT1 V129I/L133F (Plasmodium falciparum, UniProt Q8IDM6, L133F/V129I)
T1 sequence (Q8IDM6 1-422 V129I/L133F): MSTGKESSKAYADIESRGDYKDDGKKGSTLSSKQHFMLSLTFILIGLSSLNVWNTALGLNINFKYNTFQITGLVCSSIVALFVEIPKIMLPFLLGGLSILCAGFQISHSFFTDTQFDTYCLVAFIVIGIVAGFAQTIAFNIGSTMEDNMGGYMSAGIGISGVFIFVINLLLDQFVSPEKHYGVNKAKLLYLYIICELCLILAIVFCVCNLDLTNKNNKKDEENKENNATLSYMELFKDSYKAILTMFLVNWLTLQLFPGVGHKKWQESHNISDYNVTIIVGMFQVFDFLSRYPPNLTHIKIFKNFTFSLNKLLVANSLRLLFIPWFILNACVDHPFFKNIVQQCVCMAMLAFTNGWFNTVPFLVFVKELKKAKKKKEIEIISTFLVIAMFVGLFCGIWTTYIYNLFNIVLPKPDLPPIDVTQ

PfENT1 I418M = target: T2, PfENT1 I418M (Plasmodium falciparum, UniProt Q8IDM6, I418M)
T2 sequence (Q8IDM6 1-422 I418M): T1 sequence (Q8IDM6 1-422 V129I/L133F) with I129V, F133L, I418M

PfENT1 Q284E = target: T3, PfENT1 Q284E (Plasmodium falciparum, UniProt Q8IDM6, Q284E)
T3 sequence (Q8IDM6 1-422 Q284E): T1 sequence (Q8IDM6 1-422 V129I/L133F) with I129V, F133L, Q284E

PfENT1 F394L = target: T4, PfENT1 F394L (Plasmodium falciparum, UniProt Q8IDM6, F394L)
T4 sequence (Q8IDM6 1-422 F394L): T1 sequence (Q8IDM6 1-422 V129I/L133F) with I129V, F133L, F394L

PfENT1 F92I = target: T5, PfENT1 F92I (Plasmodium falciparum, UniProt Q8IDM6, F92I)
T5 sequence (Q8IDM6 1-422 F92I): T1 sequence (Q8IDM6 1-422 V129I/L133F) with F92I, I129V, F133L

PfENT1 S317T = target: T6, PfENT1 S317T (Plasmodium falciparum, UniProt Q8IDM6, S317T)
T6 sequence (Q8IDM6 1-422 S317T): T1 sequence (Q8IDM6 1-422 V129I/L133F) with I129V, F133L, S317T

| SMILES | IC50 (PfENT1 V129I/L133F) [µM] | IC50 (PfENT1 I418M) [µM] | IC50 (PfENT1 Q284E) [µM] | IC50 (PfENT1 F394L) [µM] | IC50 (PfENT1 F92I) [µM] | IC50 (PfENT1 S317T) [µM] |
| --- | --- | --- | --- | --- | --- | --- |
| OC[C@H]1O[C@@H](n2cnc3c(O)ncnc32)[C@H](O)[C@@H]1O [Inosine, inosine] | 20 ± 7 | 12 ± 2 | 18 ± 6 | 94 ± 29 | 51 ± 14 | 28 ± 2 |
| Nc1ncnc2nc[nH]c12 [Adenine, adenine] | 930 ± 285 | 221 ± 36 | 1070 ± 128 | 1500 ± 227 | 176 ± 35 | 205 ± 49 |
| O=c1[nH]cnc2nc[nH]c12 [Hypoxanthine, hypoxanthine] | 360 ± 66 | 145 ± 7 | 566 ± 133 | 837 ± 93 | 207 ± 34 | 175 ± 31 |
